# Assay results reported in patent publication EP2181708A1, “Use of Valproate for reducing CHOP levels, particularly in a mammal having SCI” (Universitat Autonoma de Barcelona, priority 2008, dated 2010).
# What was measured:
# Format in all cases: in vivo, Sprague-Dawley rats
# [1] = system: CHOP; test: Western blot of CHOP in spinal cord after contusion SCI
# Experimental: (§1) Adult females Sprague-Dawley rats aged 11 weeks (220-250 g) were anesthetized with pentobarbital (40 mg/kg i.p.). When unresponsive, the vertebral column was exposed and a laminectomy carried out at T8-T9 levels. Rostral T7 and caudal T10 vertebral bodies were clamped with Adson stabilizing forceps, and carefully adjusted to level the spinal cord in the horizontal plane. A contusion injury was performed using the Infinite Horizon impactor device (Precision Scientific Instruments, Lexington, KY). The stainless steel impounder tip was placed at 3-4 mm above the exposed spinal cord, and then a fast impact produced applying forces of 150 or 250 kilodynes (KDyn) to the exposed spinal cord. The wound was sutured with 5-0 silk thread in the muscular plane and the skin was closed with small clips and disinfected with povidone iodine solution. Sham-operated animals received the same surgical procedure but sustained no impact injury; the spinal cord was left exposed for 5 min. The animals were maintained in a warm environment until full recovery, and received preventive antibiotic (amoxicyline) and analgesic (buprenorphine) treatment. All animals were kept under standard conditions of light and temperature and fed with food and water ad libitum. The procedures involving animals were approved by the Ethics Committee of our institution, and followed the European Communities Council Directive 86/609/EEC.
# VPA was intraperitoneally administered at an initial dose of 150 mg/kg by 3 h after surgery, and then a dose of 300 mg/Kg either every 24 h or every 12 h during the first week post-surgery, following by a dose of 300 mg/Kg every 24 h for the next two weeks. Groups of rats subjected to SCI or sham operation received VPA or saline injections following the same regime. […]
# (§2) Rats were re-anesthetised and decapitated at 3 dpo for sample preparation. […] After clearance, protein concentration was measured by the BCA method assay (BCA Protein Assay kit, Pierce). […]
# [2] = system: acetylated histone-3 (acetyl-H3); test: Western blot of acetylated histone-3 in spinal cord after contusion SCI; details: 250 Kdyn contusion, VPA every 12 h, vs SCI without VPA
# Experimental: as §1, with “All animals were kept under standard conditions of light and temperature and fed with food and water ad libitum. The procedures involving animals were approved by the Ethics Committee of our institution, and followed the European Communities Council Directive 86/609/EEC.” left out
# as §2
# [3] = system: ventral horn motoneurons; test: Ventral horn neuron and motoneuron analysis (cresyl violet, NeuN) after SCI
# Experimental: as §1, with “86/609/EEC. […]” for “86/609/EEC.”
# Motoneurons were identified by their localization in the lateral ventral horn of spinal cord sections stained with cresyl violet and were counted following a method published elsewhere (Grossman et al, 2001) by size and morphological strict criteria. […] Only motoneurons with diameter larger than one square, i.e. ranging from 30 to 70 (m, and with a prominent nucleolus and being polygonal in shape were counted. The mean number of motoneurons per section was calculated. […]
compound,measurement,setting,value
"CCCC(CCC)C(=O)O [VPA, 2-propylpentanoic acid]",CHOP levels,"[1]; VPA 300 mg/kg every 12 h i.p., contusion 150 and 250 KDyn, three days post-injury",significantly reduced
same,"CHOP level reduction, 250 KDyn versus 150 KDyn contusion","[1]; VPA 300 mg/kg every 12 h i.p., three days post-injury",more pronounced
same,CHOP levels,"[1]; VPA 300mg/kg once per day i.p., vs saline, 3 days post-injury",did not produce changes
same,levels of acetylated H3,[2],further increased
same,lesions in the sections distal to the epicenter,"[3]; 35 days, vs saline",fewer lesions
same,length of spinal cord devoid of motoneurons,"[3]; cresyl violet sections, especially caudal side, did not reach statistical significance",A reduction
same,number of NeuN neurons,"[3]; ventral horn, distal to the epicenter",more abundant
